How the values were obtained:
lysolecithin model = settings: Hu, 2011; cited from earlier work
mouse primary microglia = assay: Pro-inflammatory cytokine production in mouse primary microglia; type: cell-based
[1] = test system: mouse-cultured cortical cells; settings: pretreatment; Di Menna, 2013; cited from earlier work
[2] = test system: peripheral lymphocyte counts; assay: Peripheral lymphocyte counts with fingolimod; type: in vivo; settings: S1P receptor-mediated
lymphocyte counts = assay: Lymphocyte counts over time with laquinimod versus placebo; type: in vivo; settings: laquinimod 0.6 mg group vs placebo or baseline, all visits
established EAE = assay: Established EAE; type: in vivo
NF-κB pathway = assay: p65 translocation into the astrocyte nucleus in vivo

SMILES	re-myelination (lysolecithin model)	microglial production of pro-inflammatory cytokine (mouse primary microglia)	protection of neurons against NMDA toxicity [1]	lymphocyte count reduction [2]	lymphocyte counts (lymphocyte counts)	clinical disease (established EAE)	expansion of pre-existing lesions (established EAE)	astrocyte activation (p65 translocation into the astrocyte nucleus) (NF-κB pathway)
CCCCCCCCc1ccc(CCC(N)(CO)CO)cc1 [Fingolimod]	lack of any effect	inhibited	protected neurons against NMDA toxicity	dose dependent				
CCN(C(=O)c1c(O)c2c(Cl)cccc2n(C)c1=O)c1ccccc1 [Laquinimod]					remained stable	ameliorates clinical disease	inhibits further expansion of pre-existing lesions	significantly reduced astrocyte activation

Source: patent publication US20160074380A1, “Treatment Of Neurodegenerative Diseases With Combination Of Laquinimod And Fingolimod” (TEVA PHARMACEUTICAL INDUSTRIES LTD., priority 2014, published 2016)
